Experimental data as given in ChEMBL document CHEMBL5344429, “1,3-Substituted β-Carboline Derivatives as Potent Chemotherapy for the Treatment of Cystic Echinococcosis” (J Med Chem, 2023).
Activity calls are given as the source filed them. No cut-off for these calls is given here.

Columns and labels:
Type in all cases: functional
Echinococcus granulosus [1] = assay: Inhibition of Echinococcus granulosus
Echinococcus granulosus [2] = assay: Parasiticidal activity against Echinococcus granulosus protoscolices assessed as death rate at 1 uM incubated for 48 hrs by eosin exclusion test
Echinococcus granulosus [3] = assay: Parasiticidal activity against Echinococcus granulosus protoscolices […] by eosin exclusion test; details: 1152 h, time 48 day

CCCCn1c2ccccc2c2ccnc(-c3ccc(OC)cc3)c21
LC50 (Echinococcus granulosus [1]): 47.8 µM

COc1cc(-c2nc(NC(=O)c3ccc(CN4CCCN(C)CC4)cc3)cc3c2[nH]c2ccccc23)cc(OC)c1OC
Activity (Echinococcus granulosus [2]): Active
LC50 (Echinococcus granulosus [3]): 16 µM

Cc1ccc(-c2nc(NC(=O)c3ccc(CN4CCC(N5CCCCC5)CC4)cc3)cc3c2[nH]c2ccccc23)cc1
Activity (Echinococcus granulosus [2]): Active
LC50 (Echinococcus granulosus [3]): 12.5 µM

COc1cccc(-c2nc(C(=O)Nc3ccc(CN4CCC(N5CCCCC5)CC4)cc3)cc3c2[nH]c2ccccc23)c1
Activity (Echinococcus granulosus [2]): Active
LC50 (Echinococcus granulosus [3]): 18.1 µM

COc1cccc(-c2nc(C(=O)Nc3ccc(CN4CCC(N5CCCCC5)CC4)cc3)cc3c2[nH]c2ccccc23)c1OC
Activity (Echinococcus granulosus [2]): Active
LC50 (Echinococcus granulosus [3]): 5.8 µM

COc1ccccc1-c1nc(C(=O)Nc2ccc(CN3CCC(N4CCCCC4)CC3)cc2)cc2c1[nH]c1ccccc12
Activity (Echinococcus granulosus [2]): Active
LC50 (Echinococcus granulosus [3]): 13.4 µM

COc1cccc(-c2nc(NC(=O)c3ccc(CN4CCCN(C)CC4)cc3)cc3c2[nH]c2ccccc23)c1
LC50 (Echinococcus granulosus [3]): 17.9 µM

COc1ccc(-c2nc(C(=O)Nc3ccc(CN4CCC(N5CCCCC5)CC4)cc3)cc3c2[nH]c2ccccc23)cc1
Activity (Echinococcus granulosus [2]): Active
LC50 (Echinococcus granulosus [3]): 7.67 µM
